In article PMC5988692, “AZ304, a novel dual BRAF inhibitor, exerts anti-tumour effects in colorectal cancer independently of BRAF genetic status” (British Journal of Cancer, 2018):
Where two headings read alike, the source gives them in different places.

Key:
[1] = tested on: RKO, HT-29, DiFi and Caco-2 cells; experiment: MTT assay with EGF stimulation; format: cell-based, human; conditions: four CRC cell lines, AZ304 + EGF (20 ng/ml) vs AZ304 alone, 72 h
Method: The proliferation assays in selected colorectal cancer cell lines were measured using a 3-(4,5-dimethyl thiazol-2-yl)-2,5-diphenyl tetrazolium bromide (MTT) assay. First of all, cultured cells were seeded into 96-well plates (2000–5000 cells per well). After incubation for 24 h, the cells were pretreated with DMSO or AZ304 for 1 h. Then the indicated doses of Cetuximab were added. Cells were incubated for a further 48 or 72 h. For EGF stimulating assay, cells were incubated in reduced serum medium overnight and then treated with AZ304 or AZ304 + EGF (20 ng/ml) for 72 h. Twenty microliter of MTT solution (5 mg/ml) was added to each well followed by 4 h incubation at 37 °C. The cell culture medium was removed and the cells were lysed in 200 μl dimethylsulphoxide (DMSO) and the results were measured using a microplate reader (Model 550, Bio-Rad Laboratories, Hercules, CA, USA).
Fig. 5 Anti-proliferative activity of AZ304 cannot be retained by EGF in CRC cell lines with different BRAF mutation status. a Two V600E mutant BRAF cell lines (RKO, HT-29) and two wild type BRAF cell lines (DiFi, Caco-2) were serum starved overnight and then treated with the indicated AZ304 or AZ304 + EGF for 72 h. […]

[2] = tested on: RKO xenografts; experiment: Xenograft study (tumour growth, immunohistochemistry); format: in vivo, athymic BALB/c nude mice
Method: (§1) All in vivo experiments were performed in accordance with Institutional Review Board of China Medical University guidelines. Female 4–6 weeks old athymic BALB/c nude mice were purchased from Shanghai SLAC Laboratory Animal Centre (Shanghai, China). RKO/Caco-2 cells (1 × 10^7) in 200 μl PBS were injected subcutaneously into the right scapular region of mice. […] Tumours were measured with a caliper every 2 days, so did body weights. Tumour volume was calculated using the formula V = 1/2 (width^2 × length). Mice were terminated by CO2 inhalation when the tumour diameters reached 1.5 cm, according to the protocol filed with the Guidance of Institutional Animal Care and Use Committee of China Medical University.
(§2) Tumours were formalin-fixed, paraffin-embedded and prepared as described in our previous study for staining with haematoxylin and eosin.[19] […] The staining was evaluated by scanning the entire tissue specimen under low magnification (×10) and confirmed under high magnification (×20 and ×40). The protein expression was visualised and classified based on the percentage of positive cells and the intensity of staining. From each section, five visual fields were randomly selected. The degree of protein expression was based on the percentage of positive cells and the intensity of staining. Staining intensity was scored as 0 (no staining), 1 (low staining), 2 (intermediate staining), and 3 (high staining). For the staining area, ≤5%, 5–25%, 26–50, 51–75% >75% were recorded as 0, 1, 2, 3 and 4 points, respectively. Histological score = staining intensity × staining area. A score 0 was classified as negative (−), 1–4 points as weakly positive (+), 6–12 points as a strong positive (++). Final scores were assigned by two independent pathologists.
(§3) Student’s t-tests were used for statistical analyses. Data are plotted as mean ± SD. […] Tumours were harvested 4 h after dosing on day 10

[3] = tested on: Caco-2 xenografts; experiment: as above; format: in vivo, athymic BALB/c nude mice
Method: as §1, §2, §3

[4] = tested on: panel of human cancer cell lines with different BRAF and RAS genetic statuses; experiment: Cell proliferation assay, ranges over the cell panel; format: cell-based; conditions: 72 h, 3 days, read-out: GI50 values, range
Method: The proliferation assays against a cell panel were performed as described in ref.[18] Briefly, the cells were treated with DMSO or multiple concentrations of AZ304 for 3 days. The cell growth was determined using the CellTiter 96 Aqueous One Cell Proliferation Assay (Promega, Madison, WI). […] The assays were done in triplicate across different plates.
Anti-proliferative activity of AZ304 against a panel of cell lines with different BRAF and RAS genetic status. […] Cell growth was determined by MTS assay.

[5] = tested on: p-ERK in A375 cells; experiment: A375 p-ERK cellular assay; format: cell-based; conditions: Homo sapiens, A-375, 1.25 h; A375 (V600E mutant BRAF melanoma), 75 min; read-out: mean EC50, reduction of ERK phosphorylation (p-ERK)
Method: A375 cells were seeded into 96-well micro plates (Costar, Corning, and Lowell, MA) at […] in phenol red free DMEM (Invitrogen, Carlsbad, CA) supplemented with 10% foetal bovine serum. After 48 h, the cells were treated with DMSO or multiple concentrations of AZ304 and then returned to the incubator for 75 min. Medium were then aspirated and cells were fixed with a 6% formaldehyde solution for 20 min at room temperature. Cells were washed once with PBS containing 0.05% Triton X-100 (PBST) and 0.6% hydrogen peroxide added for 20 min at room temperature. After washing again in PBST, cells were blocked with 10% FBS/PBST solution for 1 h at room temperature. After washing, p-ERK monoclonal antibody was added and the plates were placed at 4 °C for overnight. […] Quantification of signal was determined at OD405 using a SpectraMax plate reader (Molecular Devices, Sunnyvale, CA). […] EC50 was calculated using XLift.
Cells were incubated with DMSO or AZ304 for 75 min and p-ERK levels were determined using a p-ERK antibody based ELISA. […] Cells were incubated with DMSO or AZ304 (±EGF) for 75 min and p-ERK levels were determined using a p-ERK antibody based ELISA. […]

[6] = RKO xenograft tumours, day 10, 4 h after dosing, score = staining intensity × staining area
[7] = Caco-2 xenograft tumours, day 10, 4 h after dosing, score = staining intensity × staining area

SMILES: COc1ccc2c(Nc3cc(NC(=O)c4cccc(C(C)(C)C#N)c4)ccc3C)ncnc2c1 [AZ304]
- change of anti-proliferative effects after combined treatment with EGF [1]: no significant reduction of anti-proliferative effects
- Ki67 histological score [2, 6]: 4.8 ±1.10
- p-AKT histological score [2, 6]: 4.2 ±2.28
- p-EGFR histological score [2, 6]: 10 ±1.87
- p-ERK histological score [2, 6]: 3.2 ±1.10
- tumour growth ([2]; RKO xenograft, AZ304 10 mg/kg oral twice daily, Cetuximab 40 mg/kg i.p. twice per week, 10 days, vs vehicle): reduced tumour growth
- Ki67 histological score [3, 7]: 3.2 ±0.84
- p-AKT histological score [3, 7]: 6.8 ±1.10
- p-EGFR histological score [3, 7]: 10.6 ±1.95
- p-ERK histological score [3, 7]: 4.8 ±1.10
- tumour growth ([3]; Caco-2 xenograft, AZ304 10 mg/kg oral twice daily, Cetuximab 40 mg/kg i.p. twice per week, 10 days, vs vehicle): reduced tumour growth
- GI50 ([4]; mutant BRAF cell lines): 80 to 7720 nM
- GI50 ([4]; mutant RAS cell lines): 900 to 16700 nM
- GI50 ([4]; wild type BRAF/RAS cell lines): 430 to 11700 nM
- EC50 [5]: 65 nM
